Patent US20260226071A1, “2, 4-DIANILINOPYRIMIDINE-BASED AURORA-A KINASE SELECTIVE DEGRADATION INDUCING COMPOUNDS” (UPPTHERA, INC., priority 2023, published 2026)

Target: T1, Aurora kinase A (AURKA) (Homo sapiens, UniProt O14965)
T1 construct: endogenous in cells; host or cells: HeLa LgBit (AURKA-HiBit KI), CRISPR/Cas9 knock-in at the endogenous AURKA locus
T1 sequence (O14965 1-403): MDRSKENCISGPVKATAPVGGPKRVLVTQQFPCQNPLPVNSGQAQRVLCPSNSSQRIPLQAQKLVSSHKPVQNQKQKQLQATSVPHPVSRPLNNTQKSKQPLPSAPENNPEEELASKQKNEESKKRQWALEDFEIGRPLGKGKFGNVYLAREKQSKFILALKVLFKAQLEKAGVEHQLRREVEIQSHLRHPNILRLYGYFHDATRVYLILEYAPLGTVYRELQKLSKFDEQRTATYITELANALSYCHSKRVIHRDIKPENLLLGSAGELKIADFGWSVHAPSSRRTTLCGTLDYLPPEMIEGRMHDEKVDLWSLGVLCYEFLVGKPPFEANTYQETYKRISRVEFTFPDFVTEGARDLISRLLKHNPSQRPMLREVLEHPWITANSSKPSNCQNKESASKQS
Experiment: Luciferase assay for AURKA in HeLa LgBit (AURKA-HiBit KI) cell line
Format: cell-based
Settings: HeLa LgBit (AURKA-HiBit KI) cells, measured after 12 hours
Excerpt: HeLa cell lines that stably express LgBit were constructed via LgBit vector transfection. Then, donor DNA and guide RNA for insertion of HiBit amino acid sequence at C-terminus of inherent Aurora kinase A (AURKA) genes were designed and constructed. Thereafter, they were transfected into the cell lines with CRISPR/Cas9 expression vector system. HiBit gene knock-in single cells were selected, passaged and used for the experiments.
For cell culture, DMEM (Gibco, Cat. No. 11995-065; Lot. No. 2562497), FBS (Gibco, Cat. No. 16000-044; Lot. No. 2511328P), Penicillin/Streptomycin (PS) (Gibco, Cat. No. 15140-122; Lot. No. 2585636), 90 mm^2 cell culture dish (SPL, Cat. No. 20100), 96-well white plate, PBS pH 7.4 (Gibco, […]), TrypLE™ Express (Gibco, Cat. No. 12605-010; Lot. No. 2522525), counting chamber (hematocytometer) (Hirschmann, Cat. No. 8100204; Lot. No. 8021087) and 0.4% Trypan Blue solution (DYNEBIO, Cat. No. CBT3710; Lot. No. 20231017) were used. Cells were cultured in DMEM supplemented with 10% FBS and 1% PS and incubated in CO2 incubator (Thermo, Cat. No. 4111) at 37° C., 5% CO2 condition.
HeLa LgBit (AURKA-HiBit KI) cell lines were cultured in 90 mm^2 cell culture dish, and 3×10^4 cells in […] of total medium volume were seeded and incubated for 18 hours in CO2 incubator. Then, Eudurazine (Promega, Cat. No. N247B; Lot. No. 495218) was added to each well to make up 1% of the total volume, followed by further incubation for 2 hours in CO2 incubator.
The present compounds were fully dissolved in DMSO (Sigma-Aldrich Cat. No. D2438, Lot. No. RNBL7287) and 10 nM or 100 nM of total concentration were used in the experiment. After adding the compounds in each well of 96-well white plate, the plate was placed in the plate reader (BMG Labtech, CLARIOstar Plus) for real-time analysis. The wavelength for analysis was set to […], and the luminescence value was measured after 12 hours. The luminescence value was analyzed through an Excel program.

SMILES | luminescence value (Level) (10 nM compound) | luminescence value (Level) (100 nM compound)
CN(CC1CCN(c2ccc(C3CCC(=O)NC3=O)cc2)CC1)[C@@H]1CCC[C@@H]1NC(=O)c1ccc(Nc2ncc(F)c(Nc3ccc(C(=O)Nc4ccccc4Cl)cc3)n2)cc1 (stereo partly drawn) [Compound 10, N-(2-chlorophenyl)-4-((2-((4-(((1S,2R)-2-(((1-(4-(2,6-dioxopiperidin-3-yl)phenyl)piperidin-4-yl)methyl)(methyl)amino)cyclopentyl)carbamoyl)phenyl)amino)-5-fluoropyrimidin-4-yl)amino)benzamide] | D (D is 0.7 to 0.8) | C (C is 0.4 to 0.6)
CN(CC1CCN(c2ccc(C3CCC(=O)NC3=O)cc2)CC1)C1CC(NC(=O)c2ccc(Nc3ncc(F)c(Nc4ccc(C(=O)Nc5ccccc5Cl)cc4)n3)cc2)C1 (centres unmarked) [Compound 11, N-(2-chlorophenyl)-4-((2-((4-((3-(((1-(4-(2,6-dioxopiperidin-3-yl)phenyl)piperidin-4-yl)methyl)(methyl)amino)cyclobutyl)carbamoyl)phenyl)amino)-5-fluoropyrimidin-4-yl)amino)benzamide] | D (D is 0.7 to 0.8) | B (B is 0.2 to 0.4)
O=C1CCC(c2ccc(C#CC3CCN(C4CCN(C(=O)c5ccc(Nc6ncc(F)c(Nc7ccc(C(=O)Nc8ccccc8Cl)cc7)n6)cc5)CC4)CC3)cc2)C(=O)N1 (centres unmarked) [Compound 14, N-(2-chlorophenyl)-4-((2-((4-(4-((4-(2,6-dioxopiperidin-3-yl)phenyl)ethynyl)-[1,4′-bipiperidine]-1′-carbonyl)phenyl)amino)-5-fluoropyrimidin-4-yl)amino)benzamide] | D (D is 0.7 to 0.8) | C (C is 0.4 to 0.6)
O=C1CCC(c2ccc(C#CC3CCN(C4CCN(C(=O)c5ccc(Nc6ncc(F)c(Nc7ccc(C(=O)Nc8ccccc8Cl)cc7)n6)cc5)CC4)CC3)cn2)C(=O)N1 (centres unmarked) [Compound 20, N-(2-chlorophenyl)-4-((2-((4-(4-((6-(2,6-dioxopiperidin-3-yl)pyridin-3-yl)ethynyl)-[1,4′-bipiperidine]-1′-carbonyl)phenyl)amino)-5-fluoropyrimidin-4-yl)amino)benzamide] | D (D is 0.7 to 0.8) | C (C is 0.4 to 0.6)
O=C1CCC(Nc2ccc(N3C[C@@H]4[C@@H](CN5CCC(NC(=O)c6ccc(Nc7ncc(F)c(Nc8ccc(C(=O)Nc9ccccc9Cl)cc8)n7)cc6)CC5)[C@@H]4C3)cc2)C(=O)N1 (stereo partly drawn) [Compound 27, N-(2-chlorophenyl)-4-((2-((4-((1-(((1R,5S,6s)-3-(4-((2,6-dioxopiperidin-3-yl)amino)phenyl)-3-azabicyclo[3.1.0]hexan-6-yl)methyl)piperidin-4-yl)carbamoyl)phenyl)amino)-5-fluoropyrimidin-4-yl)amino)benzamide] | B (B is 0.3 to 0.5) | B (B is 0.2 to 0.4)
O=C1CCC(Nc2ccc(N3CC4CC(C3)N(C3CCN(C(=O)c5ccc(Nc6ncc(F)c(Nc7ccc(C(=O)Nc8ccccc8Cl)cc7)n6)cc5)CC3)C4)cc2)C(=O)N1 (centres unmarked) [Compound 28, N-(2-chlorophenyl)-4-((2-((4-(4-(3-(4-((2,6-dioxopiperidin-3-yl)amino)phenyl)-3,6-diazabicyclo[3.2.1]octan-6-yl)piperidine-1-carbonyl)phenyl)amino)-5-fluoropyrimidin-4-yl)amino)benzamide] | C (C is 0.5 to 0.7) | B (B is 0.2 to 0.4)
O=C1CCC(Nc2ccc(N3CC4CC(C3)N(CC3CCN(C(=O)c5ccc(Nc6ncc(F)c(Nc7ccc(C(=O)Nc8ccccc8Cl)cc7)n6)cc5)CC3)C4)cc2)C(=O)N1 (centres unmarked) [Compound 29, N-(2-chlorophenyl)-4-((2-((4-(4-((3-(4-((2,6-dioxopiperidin-3-yl)amino)phenyl)-3,6-diazabicyclo[3.2.1]octan-6-yl)methyl)piperidine-1-carbonyl)phenyl)amino)-5-fluoropyrimidin-4-yl)amino)benzamide] | C (C is 0.5 to 0.7) | B (B is 0.2 to 0.4)
O=C1CCC(Nc2ccc(N3CCC(CN4CC5(C4)CN(C(=O)c4ccc(Nc6ncc(F)c(Nc7ccc(C(=O)Nc8ccccc8Cl)cc7)n6)cc4)C5)CC3)cc2)C(=O)N1 (centres unmarked) [Compound 31, N-(2-chlorophenyl)-4-((2-((4-(6-((1-(4-((2,6-dioxopiperidin-3-yl)amino)phenyl)piperidin-4-yl)methyl)-2,6-diazaspiro[3.3]heptane-2-carbonyl)phenyl)amino)-5-fluoropyrimidin-4-yl)amino)benzamide] | C (C is 0.5 to 0.7) | B (B is 0.2 to 0.4)
O=C1CCC(Nc2ccc(N3CCC(CN4CCC5(CCN(C(=O)c6ccc(Nc7ncc(F)c(Nc8ccc(C(=O)Nc9ccccc9Cl)cc8)n7)cc6)C5)C4)CC3)cc2)C(=O)N1 (centres unmarked) [Compound 32, N-(2-chlorophenyl)-4-((2-((4-(7-((1-(4-((2,6-dioxopiperidin-3-yl)amino)phenyl)piperidin-4-yl)methyl)-2,7-diazaspiro[4.4]nonane-2-carbonyl)phenyl)amino)-5-fluoropyrimidin-4-yl)amino)benzamide] | B (B is 0.3 to 0.5) | B (B is 0.2 to 0.4)

The next lines start with the values.

luminescence value (Level) (10 nM compound) | luminescence value (Level) (100 nM compound) | SMILES
C (C is 0.5 to 0.7) | B (B is 0.2 to 0.4) | O=C1CCC(c2cccc(N3CCC(CN4CCN(C(=O)Cc5ccc(Nc6ncc(F)c(Nc7ccc(C(=O)Nc8ccccc8Cl)cc7)n6)cc5)CC4)CC3)c2)C(=O)N1 (centres unmarked) [Compound 2, N-(2-chlorophenyl)-4-((2-((4-(2-(4-((1-(3-(2,6-dioxopiperidin-3-yl)phenyl)piperidin-4-yl)methyl)piperazin-1-yl)-2-oxoethyl)phenyl)amino)-5-fluoropyrimidin-4-yl)amino)benzamide]
D (D is 0.7 to 0.8) | B (B is 0.2 to 0.4) | O=C1CCC(c2ccc(C#CC3CCN(C4CCN(C(=O)Cc5ccc(Nc6ncc(F)c(Nc7ccc(C(=O)Nc8ccccc8Cl)cc7)n6)cc5)CC4)CC3)cc2)C(=O)N1 (centres unmarked) [Compound 15, N-(2-chlorophenyl)-4-((2-((4-(2-(4-((4-(2,6-dioxopiperidin-3-yl)phenyl)ethynyl)-[1,4′-bipiperidin]-1′-yl)-2-oxoethyl)phenyl)amino)-5-fluoropyrimidin-4-yl)amino)benzamide]
C (C is 0.5 to 0.7) | B (B is 0.2 to 0.4) | O=C1CCC(c2ccc(N3CCC(CCN4CCC(NC(=O)c5ccc(Nc6ncc(F)c(Nc7ccc(C(=O)Nc8ccccc8Cl)cc7)n6)cc5)CC4)CC3)cc2)C(=O)N1 (centres unmarked) [Compound 19, N-(2-chlorophenyl)-4-((2-((4-((1-(2-(1-(4-(2,6-dioxopiperidin-3-yl)phenyl)piperidin-4-yl)ethyl)piperidin-4-yl)carbamoyl)phenyl)amino)-5-fluoropyrimidin-4-yl)amino) benzamide]
C (C is 0.5 to 0.7) | B (B is 0.2 to 0.4) | O=C1CCC(Nc2cccc(N3CCC(CN4CCN(C(=O)Cc5ccc(Nc6ncc(F)c(Nc7ccc(C(=O)Nc8ccccc8Cl)cc7)n6)cc5)CC4)CC3)c2)C(=O)N1 (centres unmarked) [Compound 25, N-(2-chlorophenyl)-4-((2-((4-(2-(4-((1-(3-((2,6-dioxopiperidin-3-yl)amino)phenyl)piperidin-4-yl)methyl)piperazin-1-yl)-2-oxoethyl)phenyl)amino)-5-fluoropyrimidin-4-yl)amino)benzamide]
